Data on 13 compounds can be found in ChEMBL document CHEMBL5215012, “Daphnepedunins A-F, Anti-HIV Macrocyclic Daphnane Orthoester Diterpenoids from Daphne pedunculata” (J Nat Prod, 2022).

Where only a bound is given, the exact number is not on record here.

The test system of series [1] is Human immunodeficiency virus 1. In words: Anti-HIV activity against HIV-1 NL4-3 Nanoluc-sec virus infected in human MT4 cells assessed as viral growth inhibition by measuring luciferase activity measured after 3 days post-infection by Nano-Glo luciferase assay. It counts as functional, organism-based. Particulars: Human immunodeficiency virus 1, NL4-3, MT4, 72 h.

The subject of another series is MT4. In words: Cytotoxicity against human MT4 cells assessed as reduction in cell viability by celltiter-glo luminescent cell viability assay. It counts as toxicity, cell-based. Background: In ATP-based viability assays light output follows the ATP content of the culture.

Take `C=C(C)[C@]12C[C@@H](COC(=O)c3ccccc3)[C@@]34OC5(CCCCC[C@@H](O)C[C@@H](C)[C@H]6[C@H](C)C(=O)[C@@](O)([C@H](O)[C@@]7(CO)O[C@H]7[C@H]3[C@H]1O5)[C@@H]64)O2`: the IC50 in series [1] is 69.2 nM. In the series with MT4, the CC50 is above 6500 nM.

Take `C=C(C)[C@]12C[C@@H](C)[C@]34OC5(CCCCCCC[C@@H](C)[C@@H]6[C@@H]3[C@]3(O[C@]6(C)OC3=O)[C@H](O)[C@@]3(CO)O[C@H]3[C@H]4[C@H]1O5)O2`: in series [1], the IC50 turned out to be 229 nM.

On to `C=C(C)[C@]12C[C@@H](C)[C@@]34OC5(CCCCCCCC[C@H]6[C@H](C)C(=O)[C@@](O)([C@H](O)[C@@]7(CO)O[C@H]7[C@H]3[C@H]1O5)[C@@H]64)O2`, for which the IC50 in series [1] came to 36.3 nM. Besides, the CC50 in the series with MT4 is above 6500 nM.

Regarding `C=C(C)[C@]12C[C@@H](C)[C@]34OC5(CCCCCCC[C@H](C)[C@@H]6[C@@H]3[C@]3(O[C@]6(C)OC3=O)[C@H](O)[C@@]3(CO)O[C@H]3[C@H]4[C@H]1O5)O2`, in series [1], the IC50 was found to be 187 nM. In the series with MT4, the CC50 was above 38500 nM.

On to `C=C(C)[C@]12C[C@@H](C)[C@]34OC5(CCCCCCC[C@@H](C)[C@@H]6[C@@H]3[C@@](O)(C(=O)[C@@]6(C)O)[C@H](O)[C@@]3(CO)O[C@H]3[C@H]4[C@H]1O5)O2`, for which the IC50 in series [1] was 91.9 nM. For the same compound, the CC50 with MT4 was above 6500 nM.

Take `C=C(C)[C@]12C[C@@H](COC(=O)c3ccccc3)[C@@]34OC5(O[C@@H]1[C@@H]3[C@@H]1O[C@]1(CO)[C@@H](O)[C@@]1(O)[C@H]4[C@H]([C@H](C)[C@@H]1OC(=O)c1ccccc1)[C@H](C)CCCCCC[C@H]5O)O2`: in series [1], the IC50 is 0.15 nM. The CC50 in the series with MT4 is above 6500 nM.

`C=C(C)[C@]12C[C@@H](C)[C@@]34O[C@]5(CCCCCCC[C@H](C)[C@H]6[C@H](C)C(=O)[C@@](O)([C@H](O)[C@@]7(CO)O[C@H]7[C@H]3[C@H]1O5)[C@@H]64)O2`: the IC50 in series [1] came out at 81.7 nM.

For `C=C(C)[C@]12C[C@@H](COC(=O)c3ccccc3)[C@]34OC5(CCCCC[C@@H](OC(=O)c6ccccc6)C[C@@H](C)[C@@H]6[C@@H]3[C@]3(O[C@]6(C)OC3=O)[C@H](O)[C@@]3(CO)O[C@H]3[C@H]4[C@H]1O5)O2`, the IC50 in series [1] came out at 423 nM. Moreover, the CC50 in the series with MT4 was found to be 5300 nM.

Take `C=C(C)[C@]12C[C@@H](COC(=O)c3ccccc3)[C@]34OC5(CCCCCCC[C@@H](C)[C@@H]6[C@@H]3[C@]3(O[C@]6(C)OC3=O)[C@H](O)[C@@]3(CO)O[C@H]3[C@H]4[C@H]1O5)O2`: the IC50 in series [1] worked out at 994 nM. Also, the CC50 in the series on MT4 was 21700 nM.

As to `C=C(C)[C@]12C[C@@H](C)[C@]34OC5(CCCCCCC[C@H](C)[C@@H]6[C@@H]3[C@@](O)(C(=O)[C@@]6(C)O)[C@H](O)[C@@]3(CO)O[C@H]3[C@H]4[C@H]1O5)O2`, the IC50 in series [1] turned out to be 107 nM. The CC50 in the series with MT4 came to 24200 nM.

For the compound `C=C(C)[C@]12C[C@@H](COC(=O)c3ccccc3)[C@@]34OC5(CCCCCCC[C@@H](C)[C@H]6[C@H](C)C(=O)[C@@](O)([C@H](O)[C@@]7(CO)O[C@H]7[C@H]3[C@H]1O5)[C@@H]64)O2`, in series [1], the IC50 amounted to 71 nM. For the same compound, the CC50 with MT4 is above 38500 nM.

With `C=C(C)[C@]12C[C@@H](C)[C@@]34OC5(CCCCCCC[C@@H](C)[C@H]6[C@H](C)C(=O)[C@@](O)([C@H](O)[C@@]7(CO)O[C@H]7[C@H]3[C@H]1O5)[C@@H]64)O2`, the IC50 in series [1] amounted to 38.5 nM. In the series on MT4, the CC50 is above 6500 nM.

In the case of `C=C(C)[C@]12C[C@@H](COC(=O)c3ccccc3)[C@]34OC5(CCCCCCC[C@H](C)[C@@H]6[C@@H]3[C@]3(O[C@]6(C)OC3=O)[C@H](O)[C@@]3(CO)O[C@H]3[C@H]4[C@H]1O5)O2`, the IC50 in series [1] stood at 930 nM. Moreover, the CC50 in the series with MT4 was found to be 18800 nM.

The term IC50 denotes the point on the concentration scale where inhibition reaches its midpoint. As usually defined, the CC50 is the concentration at which the toxic effect on the cells reaches its halfway point.
